Assay results reported in PubChem BioAssay AID1259411 (Chemical Carcinogenesis Research Information System (CCRIS), 2018).
Calls of active or inactive are those of the source. How the calls were made is not given here.

Test system: rodent carcinogenicity bioassays, tumor incidence
Assay: CCRIS carcinogenicity studies
Outline: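 NCI-built, expert-reviewed records of carcinogenicity and related test outcomes (mutagenicity, tumor promotion/inhibition) compiled from published and report sources, historical span 1985-2011, not updated.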

`C1CCOC1` was tested, and the carcinogen call (Species: MOUSE, Strain/Sex: B6C3F1/FEMALE, Route: INHALATION, Dose: 0, 200, 600, 1800 PPM 6HR/D 5 D/WK FOR 105 WK (STUDY DURATION: 105 WK), Dose: 0, 200, 600, 1800 PPM 6HR/D 5 D/WK FOR 105 WK (STUDY DURATION: 105 WK), Tumor Site: Type of Lesion: LIVER: ADENOMA OR CARCINOMA) was “active; positive”, the carcinogen call (Species: MOUSE, Strain/Sex: B6C3F1/FEMALE, Route: INHALATION, Dose: 0, 200, 600, 1800 PPM 6 HR/D 5 D/WK FOR 105 WK (STUDY DURATION: 105 WK), Dose: 0, 200, 600, 1800 PPM 6 HR/D 5 D/WK FOR 105 WK (STUDY DURATION: 105 WK), Tumor Site: Type of Lesion: LIVER: HEPATOCELLULAR ADENOMA, HEPATOCELLULAR CARCINOMA) was “active; positive” and the carcinogen call (Species: MOUSE, Strain/Sex: B6C3F1/MALE, Route: INHALATION, Dose: 0, 200, 600, 1800 PPM 6 HR/D 5 D/WK FOR 105 WK (STUDY DURATION: 105 WK), Dose: 0, 200, 600, 1800 PPM 6 HR/D 5 D/WK FOR 105 WK (STUDY DURATION: 105 WK)) was “inactive; negative”. The carcinogen call (Species: RAT, Strain/Sex: F344/FEMALE, Route: INHALATION, Dose: 0, 200, 600, 1800 PPM 6 HR/D 5 D/WK FOR 105 WK (STUDY DURATION: 105 WK), Dose: 0, 200, 600, 1800 PPM 6 HR/D 5 D/WK FOR 105 WK (STUDY DURATION: 105 WK)) was “inactive; negative” and the carcinogen call (Species: RAT, Strain/Sex: F344/MALE, Route: INHALATION, Dose: 0, 200, 600, 1800 PPM 6 HR/D 5 D/WK FOR 105 WK (STUDY DURATION: 105 WK), Dose: 0, 200, 600, 1800 PPM 6 HR/D 5 D/WK FOR 105 WK (STUDY DURATION: 105 WK), Tumor Site: Type of Lesion: KIDNEY: RENAL TUBULE ADENOMA OR CARCINOMA) was “active; positive”.
For `CN(C)NC(=O)CCC(=O)O`, the carcinogen call (Species: MOUSE, Strain/Sex: B6C3F1/FEMALE, Route: ORAL, Dose: 0, 5000, 10000 PPM IN DIET FOR 104 WK (STUDY DURATION: 105 WK), Dose: 0, 5000, 10000 PPM IN DIET FOR 104 WK (STUDY DURATION: 105 WK)) was “inactive; negative”, the carcinogen call (Species: MOUSE, Strain/Sex: B6C3F1/MALE, Route: ORAL, Dose: 0, 5000, 10000 PPM IN DIET FOR 104 WK (STUDY DURATION: 105 WK), Dose: 0, 5000, 10000 PPM IN DIET FOR 104 WK (STUDY DURATION: 105 WK), Tumor Site: Type of Lesion: LIVER: HEPATOCELLULAR CARCINOMA) was “equivocal” and the carcinogen call (Species: Mouse, Strain/Sex: CD-1/Female (50/group), Route: Oral, Dose: 0, 300, 3,000, 6,000, 10,000 ppm in diet for 2 yr, Dose: 0, 300, 3,000, 6,000, 10,000 ppm in diet for 2 yr, Tumor Site: Type of Lesion: Uterus: at 10,000 ppm) was “equivocal”. For the same molecule, the carcinogen call (Species: Mouse, Strain/Sex: CD-1/Male (50/group), Route: Oral, Dose: 0, 300, 3,000, 6,000, 10,000 ppm in diet for 2 yr, Dose: 0, 300, 3,000, 6,000, 10,000 ppm in diet for 2 yr, Tumor Site: Type of Lesion: Vascular tumor: hemangioma and hemangiosarcoma in liver at 10,000 ppm) was “equivocal”, the carcinogen call (Species: Mouse, Strain/Sex: Swiss/Male and Female (100/group in controls; 50/group in treated group), Route: Oral, Dose: 0, 2% in drinking water (3000 mg/kg/day), 0.003% UDMH (40 ppm impurity) for 2 yr, Dose: 0, 2% in drinking water (3000 mg/kg/day), 0.003% UDMH (40 ppm impurity) for 2 yr, Tumor Site: Type of Lesion: Lung: adenomas and adenocarcinomas Vascular tumor: hemangioma and hemangiosarcoma predominantly in liver) was “equivocal, incidence of lung tumors may be from udmh” and the carcinogen call (Species: RAT, Strain/Sex: F344/FEMALE, Route: ORAL, Dose: 0, 5000, 10000 PPM IN DIET FOR 104 WK (STUDY DURATION: 105 WK), Dose: 0, 5000, 10000 PPM IN DIET FOR 104 WK (STUDY DURATION: 105 WK), Tumor Site: Type of Lesion: ENDOMETRIUM: ADENOCARCINOMA, UTERUS: LEIOMYOSARCOMA) was “active; positive”. The carcinogen call (Species: RAT, Strain/Sex: F344/MALE, Route: ORAL, Dose: 0, 5000, 10000 PPM IN DIET FOR 104 WK (STUDY DURATION: 105 WK), Dose: 0, 5000, 10000 PPM IN DIET FOR 104 WK (STUDY DURATION: 105 WK)) was “inactive; negative”, the carcinogen call (Species: Rat, Strain/Sex: Fischer 344/Female (50/group), Route: Oral, Dose: 0, 1, 50, 100 ppm in diet for 2 yr, Dose: 0, 1, 50, 100 ppm in diet for 2 yr, Tumor Site: Type of Lesion: Liver: increase at 50 and 100 ppm (incidence not reported by CADPR) Uterus: Adenocarcinoma (0, 0, 0, 2)) was “equivocal, ca dpr described results as providing marginal evidence of treatment” and the carcinogen call (Species: Rat, Strain/Sex: Fischer 344/Female (50/group), Route: Oral, Dose: 0, 100, 500, 5,000, 10,000 ppm in diet for 2 yr, Dose: 0, 100, 500, 5,000, 10,000 ppm in diet for 2 yr, Tumor Site: Type of Lesion: Uterus: Adenocarcinoma (0, 1, 2, 1, 1), Leiomyocarcinoma (0, 0, 0, 2, 1)) was “equivocal, ca dpr noted rarity of the tumors but that mtd not achieved”. The carcinogen call (Species: Rat, Strain/Sex: Fischer 344/Male (50/group), Route: Oral, Dose: 0, 100, 500, 5,000, 10,000 ppm in diet for 2 yr, Dose: 0, 100, 500, 5,000, 10,000 ppm in diet for 2 yr) was “inactive; negative”.
With `C[C@]12C/C(=C/O)C(=O)C[C@@H]1CC[C@@H]1[C@@H]2CC[C@@]2(C)[C@H]1CC[C@]2(C)O` the carcinogen call (Species: HUMAN, Route: ORAL, Tumor Site: Type of Lesion: LIVER) was “active; positive”, the carcinogen call (Species: RAT, Strain/Sex: F344/N/FEMALE, Route: GAVAGE, Dose: 0, 3, 30, 100 MG/KG IN 0.5% METHYLCELLULOSE FOR 104 WK (STUDY DURATION: 104 WK), Dose: 0, 3, 30, 100 MG/KG IN 0.5% METHYLCELLULOSE FOR 104 WK (STUDY DURATION: 104 WK), Tumor Site: Type of Lesion: LIVER: HEPATOCELLULAR ADENOMA, HEPATOCELLULAR ADENOMA OR CARCINOMA, LUNG: ALVEOLAR/BRONCHIOLAR ADENOMA, ALVEOLAR/BRONCHI) was “active; positive” and the carcinogen call (Species: RAT, Strain/Sex: F344/N/MALE, Route: GAVAGE, Dose: 0, 3, 30, 150 MG/KG IN 0.5% METHYLCELLULOSE FOR 104 WK (STUDY DURATION: 104 WK), Dose: 0, 3, 30, 150 MG/KG IN 0.5% METHYLCELLULOSE FOR 104 WK (STUDY DURATION: 104 WK), Tumor Site: Type of Lesion: SKIN (SUBCUTANEOUS TISSUE): FIBROMA, FIBROMA OR FIBROSARCOMA, ADRENAL GLAND: BENIGN PHEOCHROMOCYTOMA, BENIGN PHEOCHROMOC) was “equivocal”.
For `COc1cccc2c1cc([N+](=O)[O-])c1c(C(=O)O)cc3c(c12)OCO3` (tested in a mixture with another compound), the carcinogen call (Species: RAT, Strain/Sex: WISTAR/FEMALE, Route: GAVAGE, Dose: 0.1, 1.0, 10 MG/KG/D, 7 D/WK FOR 3 MO (LOW DOSE ALSO GIVEN FOR 6 OR 12 MO), Dose: 0.1, 1.0, 10 MG/KG/D, 7 D/WK FOR 3 MO (LOW DOSE ALSO GIVEN FOR 6 OR 12 MO), Tumor Site: Type of Lesion: FORESTOMACH: PAPILLOMA, CARCINOMA) was “active; positive” and the carcinogen call (Species: RAT, Strain/Sex: WISTAR/MALE, Route: GAVAGE, Dose: 0.1, 1.0, 10 MG/KG/D, 7 D/WK FOR 3 MO (LOW DOSE ALSO GIVEN FOR 6 OR 12 MO), Dose: 0.1, 1.0, 10 MG/KG/D, 7 D/WK FOR 3 MO (LOW DOSE ALSO GIVEN FOR 6 OR 12 MO), Tumor Site: Type of Lesion: FORESTOMACH: PAPILLOMA, CARCINOMA, URINARY BLADDER: PAPILLOMA, CARCINOMA, KIDNEY: CARCINOMA, Tumor Site: Type of Lesion: FORESTOMACH: PAPILLOMA, CARCINOMA, URINARY BLADDER: PAPILLOMA, CARCINOMA, KIDNEY: CARCINOMA) was “active; positive”.
`Cc1cc(-c2ccc(N/N=C3/C(=O)c4c(N)cc(S(=O)(=O)O)cc4C=C3S(=O)(=O)O)c(C)c2)ccc1N/N=C1/C(=O)c2c(N)cc(S(=O)(=O)O)cc2C=C1S(=O)(=O)O` was tested, and the carcinogen call (Species: RAT, Route: INTRAPERITONEAL, SUBCUTANEOUS, Tumor Site: Type of Lesion: LIVER, INJECTION SITE) was “active; positive”.
`CCN(CC)C(=O)N(CC)N=O` was tested, and the carcinogen call (Species: HAMSTER, Strain/Sex: SYRIAN/MALE, Route: GAVAGE, Dose: 0, 45 MG/ML (0.2 ML OF A SOLUTION IN 50% ETHANOL) 1/WK FOR 25 WK (STUDY DURATION: LIFE SPAN), Tumor Site: Type of Lesion: SPLEEN: HEMANGIOSARCOMA, FORESTOMACH: SQUAMOUS CELL CARCINOMA OR PAPILLOMA) was “active; positive”.
For `CO[Si](CCC1CCC2OC2C1)(OC)OC` (configuration not stated), the carcinogen call (Species: MOUSE, Strain/Sex: C3H/MALE, Route: DERMAL, Dose: 0, 25 MG IN ACETONE 3/WK FOR DURATION OF STUDY (STUDY DURATION: LIFETIME), Tumor Site: Type of Lesion: SKIN: CARCINOMA) was “active; positive”.
`Cc1noc(NS(=O)(=O)c2ccc(N)cc2)c1C` was tested, and the carcinogen call (Species: MOUSE, Strain/Sex: B6C3F1/FEMALE, Route: GAVAGE, Dose: 0, 500, 2000 MG/KG IN 0.5% AQ CMC, Dose: 0, 500, 2000 MG/KG IN 0.5% AQ CMC) was “inactive; negative”, the carcinogen call (Species: MOUSE, Strain/Sex: B6C3F1/MALE, Route: GAVAGE, Dose: 0, 500, 2000 MG/KG IN 0.5% AQ CMC, Dose: 0, 500, 2000 MG/KG IN 0.5% AQ CMC) was “inactive; negative” and the carcinogen call (Species: RAT, Strain/Sex: F344/FEMALE, Route: GAVAGE, Dose: 0, 100, 400 MG/KG IN 0.5% AQ CMC, Dose: 0, 100, 400 MG/KG IN 0.5% AQ CMC) was “inactive; negative”. For the same molecule, the carcinogen call (Species: RAT, Strain/Sex: F344/MALE, Route: GAVAGE, Dose: 0, 100, 400 MG/KG IN 0.5% AQ CMC, Dose: 0, 100, 400 MG/KG IN 0.5% AQ CMC) was “inactive; negative”.
